Series [1] relates to platinum sensitive recurrent ovarian cancer. As to conditions: cited from earlier work.
For series [2] the following is noted: human, in vivo. The procedure: Intracellular concentrations were normalised to tissue protein concentrations. dFdCTP=2′,2′-difluoro-2′-deoxycytidine; PBMCs=Peripheral Blood Mononuclear Cells.
6 ml of blood was collected using heparinised blood collection tubes. After centrifugation and separation of plasma, buffycoat was collected and transferred to new test tube containing 3 ml of Lymphoprep density gradient. After centrifugation, the upper interface containing the PBMC layer was transferred to new test tube. After washing with phosphate buffered saline (PBS), PBMCs were re-suspended in 100 μl PBS. Then, another 100 μl of 0.8 M PCA was added and the mixture was vortex mixed and centrifuged followed by transfer of 100 μl supernatant to new test tube. The PCA extracts were stored at −80° C. until time of analysis.
PCA extracts were buffered using 50 μl of 1M NH4Ac, then neutralised using 20 μl of 10% ammonia solution. Finally, 5 μl containing the internal standard 8-ChloroATP and 5 μl deionised water were then added. The extracts were transferred to LC-MS vials and 10 μl were injected into the UPLC-MS/MS system.
10 mg/mL stock solution of the analyte was prepared and aliquot frozen at −80° C. until use. The analyte was resolved using an ultra-performance liquid chromatography system (Accela UPLC, Thermo Scientific, UK) equipped with a Biobasic AX, 5 μm, 50×2.1 mm column (Thermo Electron Corporation, Murrieta, Calif., USA) and a mobile phase consisting of a mixture of 10 mM NH4Ac in ACN/H2O (30:70 v/v), pH 6.0 (A), and 1 mM NH4Ac in ACN/H2O (30:70 v/v), pH 10.5 (B). The mobile phase gradient was employed, comprising: buffer A=95% at 0-0.5 min, from 95 to 0% over 1.25 minutes, held at 0% for 1.75 minute, from 0 to 95% over 0.1 minutes, ending with 95% for 2.9 minutes, all at a flow rate of 500 μl/min.
Eluting compounds of interest were detected using a triple stage quadrupole Vantage mass spectrometry system (Thermo Scientific, UK) equipped with an electrospray ion source. Samples were analyzed in the Multiple Reaction Monitoring (MRM), positive (+ve) and negative (−ve) ion modes at a spray voltage of 3500 and 3000 V, respectively. Nitrogen was used as sheath and auxiliary gases at a flow rate of 50 and 20 arbitrary units, respectively. Argon was used as collision gas with pressure of 1.5 mTorr.
The combination regimen NUC-1031 with carboplatin was administered to 10 patients with ovarian cancer as part of the Phase Ib study PRO-002.

For the compound `N.N.O=C([O-])C1(C(=O)[O-])CCC1.[Pt+2]` [carboplatin], the response rate in series [1] (P=0.0016) is 30.9%. The “median PFS” value in series [1] (median follow-up 17 months, carboplatin AUC5 alone or AUC4 day 1 plus gemcitabine 1000 mg/m^2 days 1 & 8 every 3 weeks) is 5.8 months.

For `C[C@H](NP(=O)(OC[C@H]1O[C@@H](n2ccc(N)nc2=O)C(F)(F)[C@@H]1O)Oc1ccccc1)C(=O)OCc1ccccc1` (stereo partly drawn) [NUC-1031, 2′-Deoxy-2′,2′-difluoro-D-cytidine-5′-O-[phenyl (benzoxy-L-alaninyl)] phosphate], in series [2] (female), the “Apparent t1/2 (intracellular dFdCTP)” value stood at 9.6 h, the Clearance is 3.9 L/h and the “Tmax (intracellular dFdCTP)” value was determined as 1 h. Also, in series [2], the “Cmax intracellular dFdCTP levels relative to gemcitabine in combination with carboplatin” value is 4 fold, the “intracellular dFdCTP Cmax concentrations relative to gemcitabine” value was “around 10 ×” and the “levels of the toxic metabolite normally associated with gemcitabine” value is “less than half”.

Values taken from US10660912B2, “Combination therapy for cancer” (NuCana plc, priority 2015, dated 2020).
